Molecules are shown by their SMILES. Values after ≈ are worked out from the molar mass of the structure shown.

Experimental findings from ChEMBL document CHEMBL2163231, “Synthesis and antituberculosis activity of novel unfolded and macrocyclic derivatives of ent-kaurane steviol” (2012) are described below.

The test system of this experiment is Mycobacterium tuberculosis. Description: Antituberculosis activity against Mycobacterium tuberculosis H37Rv. Format: functional.
`C[C@H]1C[C@@]23CC[C@H]4[C@@](C)(CCC[C@@]4(C)C(=O)O)[C@@H]2CC[C@]1(O)C3` gave a minimal inhibitory concentration (MIC) of 20 µg/mL (≈ 62.4 µM).

On to `C[C@]12CC[C@H]3[C@](CC[C@@H]4[C@]3(C)CCC[C@]4(C)C(=O)O)(C[C@@H]1OC(=O)CC(=O)O[C@@H]1C[C@]34CC[C@H]5[C@@](C)(CCC[C@@]5(C)C(=O)O)[C@@H]3CC[C@@]1(C)C4)C2`, for which the MIC amounted to 12.5 µg/mL (≈ 17.6 µM).

`C[C@]12CC[C@H]3[C@](CC[C@@H]4[C@]3(C)CCC[C@]4(C)C(=O)O)(C[C@@H]1OC(=O)CCCCCCC(=O)O[C@@H]1C[C@]34CC[C@H]5[C@@](C)(CCC[C@@]5(C)C(=O)O)[C@@H]3CC[C@@]1(C)C4)C2` yielded an MIC of 12.5 µg/mL (≈ 16 µM).

For `C[C@]12CC[C@H]3[C@](CC[C@@H]4[C@]3(C)CCC[C@]4(C)C(=O)O)(C[C@@H]1OC(=O)CCCCCCCCC(=O)O[C@@H]1C[C@]34CC[C@H]5[C@@](C)(CCC[C@@]5(C)C(=O)O)[C@@H]3CC[C@@]1(C)C4)C2`, the MIC amounted to 12.5 µg/mL (≈ 15.5 µM).

As to `C[C@]12CC[C@H]3[C@@]4(CC[C@@H]5[C@]3(C)CCC[C@]5(C)C(=O)OCCCOC(=O)CC(=O)OCCCOC(=O)[C@]3(C)CCC[C@@]5(C)[C@@H]6CC[C@@]7(C)C[C@]6(CC[C@@H]53)C[C@H]7OC(=O)CCCCCCCCC(=O)O[C@H]1C4)C2`, the MIC came to 1 µg/mL (≈ 1.01 µM).

The compound `C[C@@H]1C[C@]23CC[C@@H]4[C@](C)(CCC[C@]4(C)C(=O)O)[C@H]2CC[C@@]1(OC(=O)CC(=O)O[C@]12CC[C@@H]4[C@](CC[C@H]5[C@@]4(C)CCC[C@@]5(C)C(=O)O)(C[C@@H]1C)C2)C3` showed an MIC of 5 µg/mL (≈ 7.05 µM).

As for `C[C@@H]1C[C@]23CC[C@@H]4[C@](C)(CCC[C@]4(C)C(=O)O)[C@H]2CC[C@@]1(OC(=O)CCCCCCC(=O)O[C@]12CC[C@@H]4[C@](CC[C@H]5[C@@]4(C)CCC[C@@]5(C)C(=O)O)(C[C@@H]1C)C2)C3`, the MIC was determined as 20 µg/mL (≈ 25.7 µM).

`C[C@@H]1C[C@]23CC[C@@H]4[C@](C)(CCC[C@]4(C)C(=O)O)[C@H]2CC[C@@]1(OC(=O)CCCCCCCCC(=O)O[C@]12CC[C@@H]4[C@](CC[C@H]5[C@@]4(C)CCC[C@@]5(C)C(=O)O)(C[C@@H]1C)C2)C3` registered an MIC of 20 µg/mL (≈ 24.8 µM).

In the case of `C[C@@H]1C[C@]23CC[C@@H]4[C@]5(C)CCC[C@]4(C)C(=O)OC(=O)[C@]4(C)CCC[C@@]6(C)[C@@H]7CC[C@@]8(C[C@@]7(CC[C@@H]64)C[C@@H]8C)OC(=O)CCCCCCCCC(=O)O[C@]1(CC[C@@H]25)C3`, the MIC came to 5 µg/mL (≈ 6.34 µM).

In the case of `C[C@@H]1C[C@]23CC[C@@H]4[C@](C)(CCC[C@]4(C)C(=O)O)[C@H]2CC[C@@]1(OC(=O)CCCCCCCCC(=O)O)C3`, the MIC came to 10 µg/mL (≈ 19.8 µM).

The compound `C[C@@H]1C[C@]23CC[C@@H]4[C@]5(C)CCC[C@]4(C)C(=O)OCCCOC(=O)CC(=O)OCCCOC(=O)[C@]4(C)CCC[C@@]6(C)[C@@H]7CC[C@@]8(C[C@@]7(CC[C@@H]64)C[C@@H]8C)OC(=O)CCCCCCCCC(=O)O[C@]1(CC[C@@H]25)C3` showed an MIC of 20 µg/mL (≈ 20.2 µM).

`NNC(=O)c1ccncc1` [ISONIAZID] returned an MIC of 1 µg/mL (≈ 7.29 µM).

On to `C[C@@]12CC[C@@H]3[C@@](CC[C@H]4[C@@]3(C)CCC[C@@]4(C)C(=O)O)(CC1=O)C2` [ISOSTEVIOL], for which inhibition of growth (MIC) required 50 µg/mL (≈ 157 µM). Against the preceding compound, the MIC is about 50-fold higher.
